pIC50: −log10 of the molar value.
The molecules below were run on A2780 human ovarian cancer cell line (assay: Cytotoxicity bioassay against the A2780 ovarian cancer cell line). Details: A2780 human ovarian cancer cell line; read-out: IC50 against A2780.
Assay type: cell-based
Experimental: Cytotoxicity Bioassays. Cytotoxicity measurements were performed against the A2780 ovarian cancer cell line as previously described. The A2780 cell line is a drug-sensitive ovarian cancer cell line.

`C/C=C(\C)C(=O)OC1C(O)C2OC(COC(=O)CCC(=O)[C@@H](OC(C)=O)CCCCC[C@H](CCC)OC3OC(C)C(OC(C)=O)C(O)C3O2)C1OC(=O)/C=C/c1ccccc1` (stereo partly drawn) [Compound 4, Tetradecanoic acid, 11-[[4-O-acetyl-6-deoxy-2-O-[3-O-[(2E)-2-methyl-1-oxo-2-butenyl]-4-O-[(2E)-1-oxo-3-phenyl-2-propenyl]-β-D-glucopyranosyl]-β-D-galactopyranosyl]oxy]-5-(acetyloxy)-4-oxo-, intramol. 1,6″-ester, (5S,11S)-] was tested, and the pIC50 was 7.46.

Same assay, conditions: Homo sapiens, A2780; read-out: IC50 (concentration that inhibited 50% of the growth of the A2780 human ovarian cell line)

Compared with `C/C=C(\C)C(=O)OC1C(O)C2OC(COC(=O)CCC(=O)CCCCCC[C@H](CCC)OC3OC(C)C(OC(C)=O)C(O)C3O2)C1OC(=O)/C=C/c1ccccc1` (stereo partly drawn) [Compound 1, Tetradecanoic acid, 11-[[4-O-acetyl-6-deoxy-2-O-[3-O-[(2E)-2-methyl-1-oxo-2-butenyl]-4-O-[(2E)-1-oxo-3-phenyl-2-propenyl]-β-D-glucopyranosyl]-β-D-galactopyranosyl]oxy]-4-oxo-, intramol. 1,6″-ester, (11S)-], `C/C=C(\C)C(=O)OC1C(O)C2OC(COC(=O)CCC(=O)CCCCCCC(CCCCC)OC3OC(C)C(OC(C)=O)C(O)C3O2)C1OC(=O)/C=C/c1ccccc1` [Compound 14, Hexadecanoic acid, 11-[[4-O-acetyl-6-deoxy-2-O-[3-O-[(2E)-2-methyl-1-oxo-2-butenyl]-4-O-[(2E)-1-oxo-3-phenyl-2-propenyl]-β-D-glucopyranosyl]-β-D-galactopyranosyl]oxy]-4-oxo-, intramol. 1,6″-ester, (11S)-] is 1.14 log units higher in pIC50: 6.30 for the first, 7.44 for the second.

Compared with `C/C=C(\C)C(=O)OC1C(O)C2OC(COC(=O)CCC(=O)CCCCCC[C@H](CCC)OC3OC(C)C(O)C(O)C3O2)C1OC(=O)/C=C/c1ccccc1` (stereo partly drawn) [Compound 2, Tetradecanoic acid, 11-[[6-deoxy-2-O-[3-O-[(2E)-2-methyl-1-oxo-2-butenyl]-4-O-[(2E)-1-oxo-3-phenyl-2-propenyl]-β-D-glucopyranosyl]-β-D-galactopyranosyl]oxy]-4-oxo-, intramol. 1,6″-ester, (11S)-], `C/C=C(\C)C(=O)OC1C(O)C2OC(COC(=O)CCC(=O)[C@@H](OC(C)=O)CCCCC[C@H](CCC)OC3OC(C)C(O)C(O)C3O2)C1OC(=O)/C=C/c1ccccc1` (stereo partly drawn) [Compound 5, Tetradecanoic acid, 5-(acetyloxy)-11-[[6-deoxy-2-O-[3-O-[(2E)-2-methyl-1-oxo-2-butenyl]-4-O-[(2E)-1-oxo-3-phenyl-2-propenyl]-β-D-glucopyranosyl]-β-D-galactopyranosyl]oxy]-4-oxo-, intramol. 1,6″-ester, (5S,11S)-] is 0.92 log units lower in pIC50: 6.40 for the first, 5.48 for the second. The first is the more potent here.

Compared with `C/C=C(\C)C(=O)OC1C(O)C2OC(COC(=O)CCC(=O)[C@@H](O)CCCCC[C@H](CCC)OC3OC(C)C(OC(C)=O)C(O)C3O2)C1OC(=O)/C=C/c1ccccc1` (stereo partly drawn) [Compound 3, Tetradecanoic acid, 11-[[4-O-acetyl-6-deoxy-2-O-[3-O-[(2E)-2-methyl-1-oxo-2-butenyl]-4-O-[(2E)-1-oxo-3-phenyl-2-propenyl]-β-D-glucopyranosyl]-β-D-galactopyranosyl]oxy]-5-hydroxy-4-oxo-, intramol. 1,6″-ester, (5S,11S)-], `C/C=C(\C)C(=O)OC1C(O)C2OC(COC(=O)CCC(=O)[C@@H](OC(C)=O)CCCCC[C@H](CCC)OC3OC(C)C(OC(C)=O)C(O)C3O2)C1OC(=O)/C=C/c1ccccc1` (stereo partly drawn) [Compound 4, Tetradecanoic acid, 11-[[4-O-acetyl-6-deoxy-2-O-[3-O-[(2E)-2-methyl-1-oxo-2-butenyl]-4-O-[(2E)-1-oxo-3-phenyl-2-propenyl]-β-D-glucopyranosyl]-β-D-galactopyranosyl]oxy]-5-(acetyloxy)-4-oxo-, intramol. 1,6″-ester, (5S,11S)-] is 1.92 log units higher in pIC50: 5.54 for the first, 7.46 for the second.

`C/C=C(\C)C(=O)OC1C(OC(=O)/C=C/c2ccccc2)C2COC(=O)CCC(=O)CCCCCC[C@H](CCC)OC3OC(C)C(OC(C)=O)C(OC(C)=O)C3OC(O2)C1OC(C)=O` (stereo partly drawn) [Compound 6, 3′,2″-O-Diacetyl ipomoeassin A] and `C/C=C(\C)C(=O)OC1C(OC(=O)/C=C/c2ccccc2)C2COC(=O)CCC(=O)[C@@H](OC(C)=O)CCCCC[C@H](CCC)OC3OC(C)C(OC(C)=O)C(OC(C)=O)C3OC(O2)C1OC(C)=O` (stereo partly drawn) [Compound 7, 5,3′,2″-O-Triacetyl ipomoeassin C] are within 0.2 log units of each other in pIC50: 4.80 for the first, 4.72 for the second.

— patent publication US7560536B2, “Morning glory-derived anticancer agents, and novel ipomoeassin compounds” (Virginia Tech Intellectual Properties, Inc., priority 2005, dated 2009)
